Experiments:
Experiment in all cases: isothermal titration calorimetry
[1] = system: TelQ (DNA, G4) TTAGGGTTAGGGTTAGGGTTAGGG; details: 10 mM Na phosphate, pH 6.5, 25°C
[2] = system: TelM (DNA, single strand) TTAGGGTTAGAGTTAGGGTTAGGG; details: 100 mM NaCl; 10 mM Na phosphate, pH 6.5, 25°C; site 1 of 2
[3] = system: dsDNA (DNA, duplex) TTAGGGTTAGGGTTAGGGTTAGGG/CCCTAACCCTAACCCTAACCCTAA; details: 100 mM NaCl or 100 mM KCl (not specified), Na+ 10 mM (Na phosphate), pH 6.5, 25°C

K ass ([1]; 100 mM KCl, text prints 1.0±0.15 × 10^7): 10.6±1.7 × 10^6 M^-1 | K ass ([1]; 100 mM NaCl): 0.9±0.1 × 10^6 M^-1 | K ass [2]: 200±70 × 10^6 M^-1 | K ass [3]: 2.2±0.1 × 10^6 M^-1
SMILES: CC(=N)NCCNc1c2c(c(NCCNC(C)=N)c3sccc13)C(=O)c1ccccc1C2=O
